The values below come from patent US8445501B2, “Substituted 7-carboxamido-pyrrolo[3,2-d]pyrimidines” (Takeda GmbH, priority 2008, dated 2013).

In general, IC50 refers to the midpoint of a concentration-inhibition curve.

This assay has as its target T1, human PDE5 (Homo sapiens, UniProt O76074).
T1 construct: from tissue; host or cells: platelets from fresh blood of human donors (lysate, 10,000 g supernatant)
Description: Inhibition of the type 5 phosphodiesterase (PDE5) activity, modified SPA test with platelet lysate. It counts as biochemical. The conditions noted are these: PDE5 from human platelet lysate, 0.5 μM cGMP. The procedure: Method for Measuring Inhibition of the Type 5 Phosphodiesterase (PDE5) Activity:
As a source for human PDE5, platelets are used. For that purpose, 150 ml fresh blood from human donors anticoagulated with citrate [final concentration 0.3% (w/v)] is centrifuged at 200 g for 10 min to obtain the so-called platelet-rich-plasma (PRP) as a supernatant. 1/10 volume of ACD solution (85 mM Na3-citrate, 111 mM D-glucose, 71 mM citric acid, pH 4.4) is added to 9/10 volume of PRP. After centrifugation (1,400 g, 10 min) the cell pellet is resuspended in 3 ml homogenization buffer (NaCl 140 mM, KCl 3.8 mM, EGTA (ethylene glycol tetraacetic acid) 1 mM, MgCl2 1 mM, Tris-HCl 20 mM, beta-mercaptoethanol 1 mM, pH 8.2) plus protease-inhibitor mix giving rise to the final concentrations of 0.5 mM Pefablock (Roche), 10 μM Leupeptin, 5 μM Trypsininhibitor, 2 mM Benzamidin and 10 μM Pepstatin A. The suspension is sonified and thereafter centrifuged for 15 min at 10,000 g. The resulting supernatant (platelet lysate) is used for enzymatic testings.
PDE5A1 activity is inhibited by the compounds of the invention in a modified SPA (scintillation proximity assay) test, supplied by Amersham Biosciences (see procedural instructions “phosphodiesterase [3H]cAMP SPA enzyme assay, code TRKQ 7090”), carried out in 96-well microtitre plates (MTP's). The test volume is 100 μl and contains 20 mM Tris buffer (pH 7.4), 0.1 mg of BSA (bovine serum albumin)/ml, 5 mM Mg^2+, 1 μM motapizone, 10 nM PDE2 inhibitor 2-(3,4-dimethoxybenzyl)-7-[(1R,2R)-2-hydroxy-1-(2-phenylethyl)propyl]-5-methylimidazo[5,1-f][1,2,4]triazin-4(3H)-one, 0.5 μM cGMP (cyclic guanosine monophosphate) (including about 50,000 cpm of [3H]cGMP as a tracer), 1 μl of the respective compound dilution in dimethylsulfoxide (DMSO) and sufficient PDE5-containing platelet lysat (10,000×g supernatant, see above) to ensure that 10-20 wt % of the cGMP is converted under the said experimental conditions. […] After a preincubation of 5 min at 37° C., the reaction is started by adding the substrate (cGMP) and the assay is incubated for a further 15 min; after that, it is stopped by adding SPA beads (50 μl). In accordance with the manufacturer's instructions, the SPA beads had previously been resuspended in water, but are then diluted 1:3 (v/v) in water; the diluted solution also contains 3 mM […] (IBMX) to ensure a complete PDE activity stop. After the beads have been sedimented (>30 min), the MTP's are analyzed in commercially available luminescence detection de-vices. The corresponding IC50 values of the compounds for the inhibition of PDE activity are deter-mined from the concentration-effect curves by means of non-linear regression.
Consider `COCC(=O)N1CC[C@H](NC(=O)c2c[nH]c3c(-c4c(OCC5CC5)ccc5c4OCO5)ncnc23)C1` [Example 21, 4-(5-Cyclopropylmethoxy-benzo[1,3]dioxol-4-yl)-5H-pyrrolo[3,2-d]pyrimidine-7-carboxylic acid [(S)-1-(2-methoxy-ethanoyl)-pyrrolidin-3-yl]amide], for which the IC50 is 1.82 nM.

`CCOC(=O)N1CC[C@H](NC(=O)c2c[nH]c3c(-c4c(OCC5CC5)ccc5c4OCO5)ncnc23)C1` [Example 22, (S)-3-({1-[4-(5-Cyclopropylmethoxy-benzo[1,3]dioxol-4-yl)-5H-pyrrolo[3,2-d]pyrimidin-7-yl]-methanoyl}-amino)-pyrrolidine-1-carboxylic acid ethyl ester] gave an IC50 of 0.49 nM.

Regarding `O=CN1CCC(CNC(=O)c2c[nH]c3c(-c4c(OCC5CC5)ccc5c4OCO5)ncnc23)CC1` [Example 23, 4-(5-Cyclopropylmethoxy-benzo[1,3]dioxol-4-yl)-5H-pyrrolo[3,2-d]pyrimidine-7-carboxylic acid (1-formyl-piperidin-4-ylmethyl)-amide], the IC50 was 0.447 nM.

For `CC(=O)N1CCC(CNC(=O)c2c[nH]c3c(-c4c(OCC5CC5)ccc5c4OCO5)ncnc23)CC1` [Example 24, 4-(5-Cyclopropylmethoxy-benzo[1,3]dioxol-4-yl)-5H-pyrrolo[3,2-d]pyrimidine-7-carboxylic acid (1-acetyl-piperidin-4-ylmethyl)-amide], the IC50 was 0.302 nM.

In turn, `O=C(NCC1CCN(C(=O)C2CC2)CC1)c1c[nH]c2c(-c3c(OCC4CC4)ccc4c3OCO4)ncnc12` [Example 25, 4-(5-Cyclopropylmethoxy-benzo[1,3]dioxol-4-yl)-5H-pyrrolo[3,2-d]pyrimidine-7-carboxylic acid [1-(1-cyclopropyl-methanoyl)-piperidin-4-ylmethyl]-amide] showed an IC50 of 0.24 nM.

`COCC(=O)N1CCC(CNC(=O)c2c[nH]c3c(-c4c(OCC5CC5)ccc5c4OCO5)ncnc23)CC1` [Example 26, 4-(5-Cyclopropylmethoxy-benzo[1,3]dioxol-4-yl)-5H-pyrrolo[3,2-d]pyrimidine-7-carboxylic acid [1-(2-methoxy-ethanoyl)-piperidin-4-ylmethyl]-amide] gave an IC50 of 0.457 nM.

`CCOC(=O)N1CCC(CNC(=O)c2c[nH]c3c(-c4c(OCC5CC5)ccc5c4OCO5)ncnc23)CC1` [Example 27, 4-[({1-[4-(5-Cyclopropylmethoxy-benzo[1,3]dioxol-4-yl)-5H-pyrrolo[3,2-d]pyrimidin-7-yl]-methanoyl}-amino)-methyl]-piperidine-1-carboxylic acid ethyl ester]: 0.372 nM corresponded to half-maximal inhibition (IC50).

Regarding `O=CN1CCCC(CNC(=O)c2c[nH]c3c(-c4c(OCC5CC5)ccc5c4OCO5)ncnc23)C1` (centres unmarked) [Example 28, 4-(5-Cyclopropylmethoxy-benzo[1,3]dioxol-4-yl)-5H-pyrrolo[3,2-d]pyrimidine-7-carboxylic acid (1-formyl-piperidin-3-ylmethyl)-amide], 0.692 nM corresponded to half-maximal inhibition (IC50).

Turning to `CCC(=O)N1CCCC(CNC(=O)c2c[nH]c3c(-c4c(OCC5CC5)ccc5c4OCO5)ncnc23)C1` (centres unmarked) [Example 29, 4-(5-Cyclopropylmethoxy-benzo[1,3]dioxol-4-yl)-5H-pyrrolo[3,2-d]pyrimidine-7-carboxylic acid (1-propionyl-piperidin-3-ylmethyl)-amide], half-maximal inhibition (IC50) was put at 0.275 nM.

`COCC(=O)N1CCCC(CNC(=O)c2c[nH]c3c(-c4c(OCC5CC5)ccc5c4OCO5)ncnc23)C1` (centres unmarked) [Example 30, 4-(5-Cyclopropylmethoxy-benzo[1,3]dioxol-4-yl)-5H-pyrrolo[3,2-d]pyrimidine-7-carboxylic acid [1-(2-methoxy-acetyl)piperidin-3-ylmethyl]-amide] gave an IC50 of 0.479 nM.

Compound `CCOC(=O)N1CCCC(CNC(=O)c2c[nH]c3c(-c4c(OCC5CC5)ccc5c4OCO5)ncnc23)C1` (centres unmarked) [Example 31, 3-({[4-(5-Cyclopropylmethoxy-benzo[1,3]dioxol-4-yl)-5H-pyrrolo[3,2-d]pyrimidine-7-carbonyl]-amino}-methyl)-piperidine-1-carboxylic acid ethyl ester] had an IC50 of 0.224 nM.

For the compound `O=CN1CCC(CNC(=O)c2c[nH]c3c(-c4c(OCC5CC5)ccc5c4OCO5)ncnc23)C1` (centres unmarked) [Example 32, 4-(5-Cyclopropylmethoxy-benzo[1,3]dioxol-4-yl)-5H-pyrrolo[3,2-d]pyrimidine-7-carboxylic acid (1-formyl-pyrrolidin-3-ylmethyl)-amide], the IC50 is 1.1 nM.

In the case of `COCC(=O)N1CCC(CNC(=O)c2c[nH]c3c(-c4c(OCC5CC5)ccc5c4OCO5)ncnc23)C1` (centres unmarked) [Example 33, 4-(5-Cyclopropylmethoxy-benzo[1,3]dioxol-4-yl)-5H-pyrrolo[3,2-d]pyrimidine-7-carboxylic acid [1-(2-methoxy-acetyl)-pyrrolidin-3-ylmethyl]-amide], half-maximal inhibition (IC50) required 1.51 nM.

As for `CCOC(=O)N1CCC(CNC(=O)c2c[nH]c3c(-c4c(OCC5CC5)ccc5c4OCO5)ncnc23)C1` (centres unmarked) [Example 34, 3-({[4-(5-Cyclopropylmethoxy-benzo[1,3]dioxol-4-yl)-5H-pyrrolo[3,2-d]pyrimidine-7-carbonyl]-amino}-methyl)-pyrrolidine-1-carboxylic acid ethyl ester], the IC50 is 0.347 nM.

`O=CN1CCOC(CNC(=O)c2c[nH]c3c(-c4c(OCC5CC5)ccc5c4OCO5)ncnc23)C1` (centres unmarked) [Example 35, 4-(5-Cyclopropylmethoxy-benzo[1,3]dioxol-4-yl)-5H-pyrrolo[3,2-d]pyrimidine-7-carboxylic acid (4-formyl-morpholin-2-ylmethyl)-amide] had an IC50 of 0.708 nM.

Compound `CCC(=O)N1CCOC(CNC(=O)c2c[nH]c3c(-c4c(OCC5CC5)ccc5c4OCO5)ncnc23)C1` (centres unmarked) [Example 36, 4-(5-Cyclopropylmethoxy-benzo[1,3]dioxol-4-yl)-5H-pyrrolo[3,2-d]pyrimidine-7-carboxylic acid (4-propionyl-morpholin-2-ylmethyl)-amide] gave an IC50 of 0.49 nM.

As to `COCC(=O)N1CCOC(CNC(=O)c2c[nH]c3c(-c4c(OCC5CC5)ccc5c4OCO5)ncnc23)C1` (centres unmarked) [Example 37, 4-(5-Cyclopropylmethoxy-benzo[1,3]dioxol-4-yl)-5H-pyrrolo[3,2-d]pyrimidine-7-carboxylic acid [4-(2-methoxy-acetyl)morpholin-2-ylmethyl]-amide], the IC50 is 0.912 nM.

As to `CCOC(=O)N1CCOC(CNC(=O)c2c[nH]c3c(-c4c(OCC5CC5)ccc5c4OCO5)ncnc23)C1` (centres unmarked) [Example 38, 2-({[4-(5-Cyclopropylmethoxy-benzo[1,3]dioxol-4-yl)-5H-pyrrolo[3,2-d]pyrimidine-7-carbonyl]-amino}-methyl)-morpholine-4-carboxylic acid ethyl ester], inhibition was half-maximal at 0.398 nM (IC50).

Turning to `CC(=O)N1CC(NC(=O)c2c[nH]c3c(-c4c(OCC5CC5)ccc5c4OCO5)ncnc23)C1` [Example 39, 4-(5-Cyclopropylmethoxy-benzo[1,3]dioxol-4-yl)-5H-pyrrolo[3,2-d]pyrimidine-7-carboxylic acid (1-acetyl-azetidin-3-yl)-amide], inhibition was half-maximal at 0.776 nM (IC50).

For the compound `CCC(=O)N1CC(NC(=O)c2c[nH]c3c(-c4c(OCC5CC5)ccc5c4OCO5)ncnc23)C1` [Example 40, 4-(5-Cyclopropylmethoxy-benzo[1,3]dioxol-4-yl)-5H-pyrrolo[3,2-d]pyrimidine-7-carboxylic acid (1-propionyl-azetidin-3-yl)-amide], the IC50 is 0.427 nM.
